From patent US12648946B2, “Combination of antibody-pyrrolobenzodiazepine derivative conjugate and PARP inhibitor” (DAIICHI SANKYO COMPANY, LIMITED, priority 2019, dated 2026) come the findings set out here.

Data set [1] concerns human pharyngeal cancer cell line FaDu. As to the kind of experiment: Cell growth inhibition test (3). It is filed as cell-based. Particulars: 144 h. As for the experimental part:
(§1) The human pharyngeal cancer cell line FaDu obtained from ATCC (American Type Culture Collection) was used for evaluation. Cells were prepared with MEM containing 10% fetal bovine serum (GE Healthcare), MEM Non-Essential Amino Acids Solution (Thermo Fisher Scientific), and Sodium Pyruvate (Thermo Fisher Scientific) (Thermo Fisher Scientific; hereinafter, referred to as EMEM medium) to reach 6.25×10^3 cells/mL, and 80 μL portions of them were added into a 96-well cell culture microplate. After addition of the cells, the cells were cultured at 37° C. and 5% CO2 overnight.
(§2) On the next day, 10 μL portions of pyrrolobenzodiazepine derivative A, B, or C diluted with EMEM medium to 100 pM, 50 pM, 25 pM, 12.5 pM, 6.25 pM, 3.13 pM, 1.56 pM, or 0.78 pM were added to the microplate. To each well without any pyrrolobenzodiazepine derivative, 10 μL of EMEM medium was added. Further, 10 μL portions of talazoparib prepared with EMEM medium to reach 2 nM were added to the microplate. To each well without talazoparib, 10 μL of EMEM medium was added. Thereafter, the microplate was cultured at 37° C. and 5% CO2 for 6 days. After culturing, the microplate was taken out of the incubator, and left to stand at room temperature for 30 minutes. CellTiter-Glo Luminescent Cell Viability Assay (Promega Corporation) in an amount equivalent to that of the culture solution was added, and stirred using a plate mixer. The microplate was left to stand at room temperature for 10 minutes, and thereafter the amount of emission was measured by using a plate reader (PerkinElmer).
(§3) Cell survival rates in wells with derivative A, B, or C were calculated by using the following formula.
(§4) [formula] • a: Mean value of amounts of emission from wells with derivative A, B, or C • b: Mean value of amounts of emission from wells with medium • IC50 values were calculated by using the following formula.
(§5) [formula] • a: Concentration of derivative A, B, or C, a • b: Concentration of derivative A, B, or C, b • c: Cell survival rate when derivative A, B, or C of concentration a was added • d: Cell survival rate when derivative A, B, or C of concentration b was added • a and b satisfy a>b at points sandwiching a cell survival rate of 50%.
Cell survival rates in wells with derivative A, B, or C added together with 2 nM talazoparib were calculated by using the following formula.
[formula] • a: Mean value of amounts of emission from wells with derivative A, B, or C added together with 2 nM talazoparib • b: Mean value of amounts of emission from wells with 2 nM talazoparib • IC50 values were calculated by using the following formula.
[formula] • a: Concentration of derivative A, B, or C, a • b: Concentration of derivative A, B, or C, b • c: Cell survival rate when derivative A, B, or C of concentration a and 2 nM talazoparib were added • d: Cell survival rate when derivative A, B, or C of concentration b and 2 nM talazoparib were added • a and b satisfy a>b at points sandwiching a cell survival rate of 50%.

Data set [2] has the same test system. As to the kind of experiment: Cell growth inhibition test (2). It counts as cell-based. As to conditions: 144 h. On the procedure: as §1
as §2, with “olaparib” for “talazoparib”, “1 μM” for “2 nM”, “olaparib,” for “talazoparib,”
Cell survival rates in wells with derivative A, B, or […] were calculated by using the following formula.
as §4, §5
Cell survival rates in wells with derivative A, B, or C added together with 1 μM olaparib were calculated by using the following formula.
[formula] • a: Mean value of amounts of emission from wells with derivative A, B, or C added together with 1 μM olaparib • b: Mean value of amounts of emission from wells with 1 μM olaparib • IC50 values were calculated by using the following formula.
[formula] • a: Concentration of derivative A, B, or C, a • b: Concentration of derivative A, B, or C, b • c: Cell survival rate when derivative A, B, or C of concentration a and 1 μM olaparib were added • d: Cell survival rate when derivative A, B, or C of concentration b and 1 μM olaparib were added • a and b satisfy a>b at points sandwiching a cell survival rate of 50%.

Data set [3] deals with human lung cancer cell line Calu-6. As to the kind of experiment: Cell growth inhibition test (1). It counts as cell-based. Particulars: Calu-6, 144 h. On the procedure: The human lung cancer cell line Calu-6 obtained from ATCC (American Type Culture Collection) was used for evaluation. Cells were prepared with MEM containing 10% fetal bovine serum (GE Healthcare), MEM Non-Essential Amino Acids Solution (Thermo Fisher Scientific), and Sodium Pyruvate (Thermo Fisher Scientific) (Thermo Fisher Scientific; hereinafter, referred to as EMEM medium) to reach 1.25×10^4 cells/mL, and 80 μL portions of them were added into a 96-well cell culture microplate. After addition of the cells, the cells were cultured at 37° C. and 5% CO2 overnight.
as §2, with “olaparib” for “talazoparib”, “μM” for “nM”, “olaparib,” for “talazoparib,”
as §3, §4, §5
Cell survival rates in wells with derivative A, B, or C added together with 2 μM olaparib were calculated by using the following formula.
[formula] a: Mean value of amounts of emission from wells with derivative A, B, or C added together with 2 μM olaparib • b: Mean value of amounts of emission from wells with 2 μM olaparib • IC50 values were calculated by using the following formula.
[formula] • a: Concentration of derivative A, B, or C, a • b: Concentration of derivative A, B, or C, b • c: Cell survival rate when derivative A, B, or C of concentration a and 2 μM olaparib were added • d: Cell survival rate when derivative A, B, or C of concentration b and 2 μM olaparib were added • a and b satisfy a>b at points sandwiching a cell survival rate of 50%.

For data set [4], the system named is human ovarian cancer cell line OV-90. As to the kind of experiment: Antitumor test (4), subcutaneous xenograft. It counts as in vivo, mouse. Particulars: single administration.
Description: Mouse: Five- to six-week-old female BALB/c nude mice (Charles River Laboratories Japan, Inc.) were subjected to experiment.
Assay and calculation formula: In all of the studies, the major axis and minor axis of a tumor were measured twice a week by using an electronic digital caliper (CD-15CX, Mitutoyo Corp.), and the tumor volume (mm^3) was calculated. The calculation formula is as shown below.
Each of the anti-CLDN6 antibody-drug conjugate ADC1, the anti-HER2 antibody-drug conjugate ADC2, and the anti-TROP2 antibody-drug conjugate ADC3 was diluted with ABS buffer (10 mM acetate buffer (pH 5.5), 5% sorbitol), and a liquid volume of 10 mL/kg was intravenously administered into the tail vein. Olaparib was dissolved in Dimethyl sulfoxide (DMSO), diluted with 10% 2-hydroxy-propyl-β-cyclodextrin (Sigma-Aldrich Co. LLC)/Dulbecco's Phosphate-Buffered Saline, and then a liquid volume of 10 mL/kg was intraperitoneally administered. Talazoparib was dissolved in DMSO, diluted with 10% N,N-dimethylacetamide/5% Kolliphor HS15 (Sigma-Aldrich Co. LLC)/Dulbecco's Phosphate-Buffered Saline, and then a liquid volume of 10 mL/kg was orally administered. […]
Setting [5] is: read-out: IC50, growth-suppressing effect, added singly, FaDu, 6 days (test 3).
[6] abbreviates: read-out: IC50, growth-suppressing effect, added together with 2 nM talazoparib, FaDu, 6 days.
Where [7] appears, read: read-out: IC50, growth-suppressing effect, added singly, FaDu, 6 days (test 2).
Where [8] appears, read: read-out: IC50, growth-suppressing effect, added together with 1 μM olaparib, FaDu, 6 days.
Setting [9] is: read-out: IC50, growth-suppressing effect, added singly, Calu-6, 6 days.
The mark [10] stands for this setting: read-out: IC50, growth-suppressing effect, added together with 2 μM olaparib, Calu-6, 6 days.

Read-outs that look alike come from different tables or passages of the source.

A word on the IC50: it is the midpoint of a concentration-inhibition curve.

Take `COc1ccc(C2=CN3C(=O)c4cc(OC)c(OCCCOc5cc6c(cc5OC)C(=O)N5CC7(CC7)C[C@H]5C=N6)cc4NC[C@@H]3C2)cc1` [derivative C, (11a′S)-7′-Methoxy-8′-(3-{[(11aS)-7-methoxy-2-(4-methoxyphenyl)-5-oxo-5,10,11,11a-tetrahydro-1H-pyrrolo[2,1-c][1,4]benzodiazepin-8-yl]oxy}propoxy)-1′,11a′-dihydro-5′H-spiro[cyclopropane-1,2′-pyrrolo[2,1-c][1,4]benzodiazepine]-5′-one]: the half-maximal inhibitory concentration (IC50) in data set [1] (setting [5]) came out at 0.0831 nM; in data set [1] (setting [6]), 0.0512 nM; in data set [2] (setting [7]) it was 0.0732 nM; in data set [2] (setting [8]) it was 0.0445 nM; in data set [3] (setting [9]), 0.113 nM; in data set [3] (setting [10]), 0.0894 nM.
Regarding `NC(=O)c1cccc2cn(-c3ccc([C@@H]4CCCNC4)cc3)nc12` [niraparib], the “findings such as weight loss” value in data set [4] (Day 21, OV-90 model) was “no particularly significant finding such as weight loss”. In data set [4] (niraparib 75 mg/kg oral for 5 days from Day 0, Day 21, OV-90), the “tumor growth inhibition (TGI)” value was 1%.
In the case of `COc1cc2c(cc1OCCCCCOc1cc3c(cc1OC)C(=O)N1CC4(CC4)C[C@H]1CN3)N=C[C@@H]1CC3(CC3)CN1C2=O` [derivative B, (11a′S)-7′-Methoxy-8′-[(5-{[(11a′S)-7′-methoxy-5′-oxo-5′,11a′-dihydro-1′H-spiro[cyclopropane-1,2′-pyrrolo[2,1-c][1,4]benzodiazepine]-8′-yl]oxy}pentyl)oxy]-1′,10′,11′,11a′-tetrahydro-5′H-spiro[cyclopropane-1,2′-pyrrolo[2,1-c][1,4]benzodiazepine]-5′-one], the IC50 in data set [1] (setting [5]) was 0.121 nM; in data set [1] (setting [6]) it was 0.0821 nM; in data set [2] (setting [7]), 0.123 nM; in data set [2] (setting [8]) it was 0.0719 nM; in data set [3] (setting [9]), 0.12 nM; in data set [3] (setting [10]) it was 0.0794 nM.
